Patent publication US7628979B1, “Use of calco oil blue V in bait formulations for marking and controlling subterranean termites” (The United States of America as represented by the …, priority 2005, dated 2009)

System: Formosan subterranean termite workers
Assay: Laboratory foraging-box bait test, groups of 1000 termite workers (colorant:CSI dose determination)
Assay type: in vivo, Coptotermes formosanus
Details: for Groups of 1000 termite workers alive: of 12 boxes
Procedure: Under a laminar flow hood, 66 g colored cellulose powder at concentration of 50, 100, 225, 250, 500, or 750 ppm (0.010, 0.020, 0.045, 0.050, 0.100, or 0.150 g, respectively) from example 1 was mixed with 135 ml of sterile nutritional supplement (formulated as in example 1) in a 250 ml sterile glass beaker (prepared as reported by Rojas, M. G. and Morales-Ramos, J. A., “Bait matrix for delivery of chitin synthesis inhibitors to the Formosan subterranean termite [Isoptera: Rhinotermitidae],” J. Econ. Entomol., 94(2): 506-510 (2001)). A dose of 175 ppm of diflubenzuron was added to the formulations containing 50 and 100 ppm of calco oil blue. A lower dose of 50 ppm of diflubenzuron was added to the formulations containing 225 and 500 ppm of calco oil blue. The mixture was manually homogenized using a stainless steel spatula. To encase the bait matrix, tubes made of fibrous casing material (#124B; L.E.M. Products, Inc., Miamitown, Ohio) were cut into 150 mm long portions as reported by Rojas and Morales-Ramos (2001) supra. Fifty grams of bait matrix containing the blue colorant was compacted into one end of the inlet tube, at which point the open end of the inlet tube was closed with a rubber band. The bait casing was placed inside the foraging box adjacent to a 10 g piece of pine wood, taking care that they were partially covered with the sand. Control bait matrix was prepared minus blue colorant, and presented in the same was as the treatment matrix to Formosan subterranean termite workers taken from four different colonies, with 3 boxes per locality totaling twelve boxes of 1000 termites per treatment (Rojas and Morales-Ramos supra). All the experimental boxes were maintained under darkness at 27±1° C. and 90±2% relative humidity. Observations were done every 72 hours until all the termites died. The time to reach 100% mortality was measured and recorded. Mean comparisons among treatments and control were conducted.

## CCCCC(CC)CNc1ccc(NCC(CC)CCCC)c2c1C(=O)c1ccccc1C2=O (stereo not shown) [Calco oil blue V, 9,10-anthracenedione, 1,4-bis[(2-ethylhexyl)amino]]
1 Month, Calco oil blue V 50 ppm + Diflubenzuron 175 ppm
  Groups of 1000 termite workers alive: 11
1 Month, Calco oil blue V 100 ppm + Diflubenzuron 175 ppm
  Groups of 1000 termite workers alive: 9
1 Month, Calco oil blue V 225 ppm + Diflubenzuron 50 ppm
  Groups of 1000 termite workers alive: 7
1 Month, Calco oil blue V 500 ppm + Diflubenzuron 50 ppm
  Groups of 1000 termite workers alive: 9
2 Months, Calco oil blue V 50 ppm + Diflubenzuron 175 ppm
  Groups of 1000 termite workers alive: 10
2 Months, Calco oil blue V 100 ppm + Diflubenzuron 175 ppm
  Groups of 1000 termite workers alive: 4
2 Months, Calco oil blue V 225 ppm + Diflubenzuron 50 ppm
  Groups of 1000 termite workers alive: 2
2 Months, Calco oil blue V 500 ppm + Diflubenzuron 50 ppm
  Groups of 1000 termite workers alive: 4
3 Months, Calco oil blue V 50 ppm + Diflubenzuron 175 ppm
  Groups of 1000 termite workers alive: 5
3 Months, Calco oil blue V 100 ppm + Diflubenzuron 175 ppm
  Groups of 1000 termite workers alive: 1
3 Months, Calco oil blue V 225 ppm + Diflubenzuron 50 ppm
  Groups of 1000 termite workers alive: 0
3 Months, Calco oil blue V 500 ppm + Diflubenzuron 50 ppm
  Groups of 1000 termite workers alive: 3
After a month and a half, 50 ppm or 100 ppm calco blue + 175 ppm diflubenzuron
  effect on molting of immature termites: immature termites molted prematurely
After a month, 225 ppm calco blue + 50 ppm diflubenzuron
  effect on molting of immature termites: immature termites molted prematurely
Calco blue + diflubenzuron combination, depending on health and age of the colony
  time to mortality of a 1000-worker colony: about 4 weeks
Calco blue concentrations above 750 ppm
  palatability of the bait: unpalatable
Calco blue concentrations above 1000 ppm
  Bait consumption: consumption is almost nonexistent
Concentration of blue >225 ppm
  time some termite colonies required to begin feeding on the formulations: more than 8 hrs
Exposure to formulation containing calco oil blue V and diflubenzuron, control boxes alive after 3 months
  time until experimental colony was dead: about two months and a half
